Test results taken from a melting point compilation (Tetko et al.; mined from patent text by program, amines drawn as free bases though some values may be those of a salt).

Compound	melting point
CCCCn1ncc(/C=C(\Cc2cc3c(cc2OC)CCO3)C(=O)OCC)c1-c1ccc(Cl)cc1O	158 to 160 °C
O=C(O)C1CSC(=S)N1 (stereo not given)	183 to 184 °C
CCCCCCCCCCCCCCCCC(C(=O)OC)S(C)=O (stereo not given)	56 to 57 °C
CN1CC(CCC#N)Oc2ncccc2C1=S (stereo not given)	155 to 156 °C
CC[C@H](C)[C@H](OCc1ccccc1)[C@H]1[C@H]([N+](=O)[O-])[C@@H]([C@@H](OCc2ccccc2)C(C)C)N[C@@H]1C(=O)O	172 to 174 °C
COc1cc2nc(N3CCN(C(=O)NC4CCCC4)CC3)nc(N)c2cc1OC	200 to 202 °C
COc1cc(C)c(Cl)cn1	32 to 33 °C
COCc1cc(NC(=O)OC)no1	90 to 91 °C
Ic1nc(-c2ccccn2)[nH]c1I	177 to 179 °C
CN(C)C=C(C(=O)C(C)(C)C)n1ccnc1	45 to 50 °C
CC(C)=C1OC(=O)N(c2cc(OC3CCCC3)c(Cl)cc2F)C1=N	131 to 133 °C
CON(C)C(=O)c1cc2c(s1)CCCC2	36 to 37 °C
Cn1cc(CCO)c2c3c(c(-c4ccccc4Cl)cc21)C(=O)NC3=O	225 to 229 °C
COC(=O)N1CCC(CCC(=O)O)CC1	88 to 90 °C
NC(=O)C12CCCN(CCC1)C2	172 to 175 °C
CCOC(=O)C1(NC(=O)Nc2cccc(C)c2)N=C(c2ccc(Cl)cc2)c2ccccc2-n2c(C)nnc21 (stereo not given)	168 to 172 °C
Cc1c(Cl)ccc(S(C)(=O)=O)c1Cl	125 to 127 °C
CC(C)SN(C)C(=O)Nc1ccc(Cl)c(Cl)c1	65 °C
CCCc1nc2c(N)nc3ccccc3c2n1CC(N)=O	> 300 °C
COc1cc2[nH]c(=O)sc2cc1OC	192 to 193 °C

Compound	melting point
CCOC(=O)c1cn(-c2nc(NC(C)(C)C)c(F)cc2F)c2c(F)c(F)c(F)cc2c1=O	174 to 178 °C
O=CCN1C(=O)c2ccccc2C1=O	114 °C
CCOC(=O)CSc1nc(O)ns1	131 °C
OC(Cn1cncn1)(c1ccc(Cl)cc1)C1(n2cncn2)CC1 (stereo not given)	208 °C
CC(CC(=O)O)CC(=O)NCCc1ccccc1 (stereo not given)	78 to 80 °C
Cc1nc(N2CCOCC2)sc1-c1ccnc(Nc2ccc(N3CCOCC3)cc2)n1	229 to 231 °C
C=C=C(C)C1Oc2cccc(OC)c2-c2ccc3c(c21)C(C)=CC(C)(C)N3 (stereo not given)	59 to 63 °C
OCc1c(Cl)ccc2nnsc12	138 to 140 °C
C#CCc1c(Cl)nc(NC=O)nc1Cl	127 to 128 °C
COc1cc(O)ccc1C=CC(=O)CC(C)=O	139 to 142 °C
Cn1c(C(F)(F)F)cc2ccccc21	28 to 32 °C
COC(=O)N1CCc2c(O)noc2C1	136 to 138 °C
FC(F)(F)c1sc(S)nc1Cl	142 to 144 °C
COc1cc2cc(c1Cl)N(C)C(=O)CC(O)C1(C)OC1C(C)C1CC(O)(NC(=O)O1)C(OC)C=CC=C(C)C2 (stereo not given)	174 °C
CCOc1cc(C(O)C(C)C)cc2c1OC(C)(C)C2 (stereo not given)	100 to 101 °C
CCN(CC)CCNC(=O)c1cc(Cl)c(N)cc1OCC(OC)OC	64 to 67 °C
O=C1Nc2cc(Cl)ccc2C1(Br)Br	127 to 130 °C
CC[C@H](NC(C)=O)c1nc2c(C(F)(F)F)cccc2c(O)c1C(=O)Nc1nccs1	275 °C
Cc1ccc2[nH]c(S(=O)(=O)CC(F)(F)F)nc2c1	160 to 161 °C
Clc1ccc(CCOc2ncnc3ncccc23)cc1	126 to 128 °C

Results, then the compound that gave them:

melting point	Compound
139 to 141 °C	CC(C)(C)c1ccc(CCC(CC2CCCCC2)OC(=O)Oc2ccc(C(=O)O)cc2)cc1NC(=O)CC1c2ccccc2Oc2ccccc21 (stereo not given)
204 to 207 °C	COc1ccc2c(c1)C(=O)N(c1ccc3ncsc3c1)C2
227 °C	NC(=O)Oc1ccccc1-c1nc2ccc(OCc3c(F)cccc3Cl)cc2s1
295 to 298 °C	Cc1ccc2c(NCc3ccc(NC(=O)c4ccc(Br)cc4)cc3)nc(Cl)nc2c1
235 to 238 °C	Cc1ccccc1C(=O)Nc1ccc(C(=O)O)cn1
220 to 225 °C	Cn1cc(C(=O)Nc2nc(-c3ccco3)c(C(=O)c3ccccc3)s2)ccc1=O
51 to 53 °C	O=CC=C(c1cccc(F)c1)c1cccc(F)c1
98 to 100 °C	Cc1cc(Oc2c(Cl)cc(C(F)(F)F)cc2Cl)nn1C(=O)NOCc1ccccc1
97 to 101 °C	COc1ccc(CCn2ccn(C3CCc4ccccc4C3)c2=S)cc1OC (stereo not given)
90 °C	CC(=O)N1c2ccc(-c3ccc(CN(C)C)cc3)cc2C(Nc2ccccc2)CC1C (stereo not given)
71 to 76 °C	O=S(=O)(NC1Cc2ccc(CCO)cc2C1)c1ccc(Cl)cc1 (stereo not given)
151 to 152 °C	CS(=O)(=O)c1ccc(C2=C(c3cccc(F)c3F)CCC2)cc1
68 to 70 °C	FC(F)(F)c1cc(Br)cc(OCc2ccc3ccccc3c2)c1
234 to 243 °C	CN(Cc1ccc(NC(=O)C2=Cc3cc(-c4ccc(N5CCOCC5)cc4)ccc3N(C=O)CC2)cc1)C1CCOCC1
86 to 87 °C	Cc1oc(-c2ccccc2)nc1COc1ccc(CCl)cn1
150 °C	CNC(=O)NN(CC(=O)OC)c1cccc(I)c1
234 to 236 °C	O=C(Nc1cccc2ncccc12)N1CCN2C(=O)OC(c3ccccc3)(c3ccccc3)C2C1 (stereo not given)
190 to 193 °C	Cc1cc(Cn2c(-c3ccccc3)nc(Cl)c2CC(=O)O)ccc1O
239 to 240 °C	Cc1ccc(CN2CCC(NC(=O)NC(=O)c3ccccc3)CC2)cc1C
211 to 212 °C	CNC(=O)CCc1cn(Cc2ccc(C(=O)NS(=O)(=O)c3ccccc3C)cc2OC)c2cc(C(=O)NCC3CCCC3)ccc12

melting point	Compound
184 to 187 °C	CCCCNC(=O)c1cc(-c2csc(-c3ccc([N+](=O)[O-])cc3)n2)n(CC2CCCCC2)c1C
127 to 129 °C	O=C1c2ccccc2C(=O)N1OCc1cc(Cl)c2c(c1Cl)OC(c1ccccc1)(c1ccccc1)O2
279 to 281 °C	O=C(O)c1ccccc1S(=O)c1cc(Cl)ccc1C(=O)O (stereo not given)
114 °C	CCCc1nn(C)c2c(NCc3ccc4c(c3)OCO4)nc(-c3ccc(C(=O)O)cc3)nc12
185 °C	CC(=O)Nc1ccc(NC(=O)C=C2CC(C(=O)O)Nc3cc(Cl)cc(Cl)c32)cc1 (racemic)
180 to 182 °C	O=C(O)c1cc2ccccc2cc1NC(=O)C(CS)Cc1ccccc1 (stereo not given)
320 to 323 °C	CCCOc1ccc(NC(C)=O)cc1C1=NC(=O)C2=NC=NC2=N1
131 to 132 °C	CCOC(=O)C1=C(NC(=O)Nc2cc(C(=O)OC(C)C)c(Br)cc2Cl)CCC1
115 °C	CCCCCCOc1ccc(-c2ncc(-c3ccc(OCc4ccccc4)c(F)c3F)cn2)cn1
194 °C	Cc1c(C(=O)Nc2ccc(OC3CCN(Cc4ccccc4)CC3)c(C#N)c2)cnn1-c1ccc(Cl)cc1
163 °C	COC(=O)c1cc2cc(C(=O)c3cccc(C(C)C#N)c3)sc2s1 (stereo not given)
79 to 81 °C	CN(C)C(=O)c1cnn(-c2ccccc2)c1Br
207 to 209 °C	CCCCCc1ccc(NS(=O)(=O)c2ccc(N3CCNC3=O)cc2)cc1
234 to 236 °C	Cc1nc(-n2ccc(O)cc2=O)sc1C(=O)NCCC1CC1
140 to 144 °C	N#CCc1cccc(-c2ccc(OCCCC(=O)NO)cc2)c1
102 to 104 °C	CC(=O)n1cc(-c2ccccc2)nc1-c1ccccc1C
103 °C	Fc1ccc(OCc2cccc(Oc3ccnc(Cl)c3)n2)cc1
125 to 128 °C	CC(=O)C1(c2ccccc2)CCN(C(=O)C(c2ccccc2)n2cnc3[nH]ncc3c2=S)CC1 (stereo not given)
106 to 107 °C	N#Cc1ccc(F)cc1-c1ccc(C(F)(F)F)cc1
209 to 210 °C	COc1cc(C)nc2c(OCc3c(Cl)ccc(N(C)C(=O)CN4C(=O)c5ccccc5C4=O)c3Cl)cccc12

melting point	Compound
89 to 91 °C	NNC(=O)Cc1cccc(OCCN2CCC(Cc3ccccc3)CC2)c1
217 to 218 °C	Nc1cccc(C(=O)c2ccc(-c3ccc(C(=O)c4cccc(N)c4)cc3)cc2)c1
191 to 193 °C	CC(=O)c1c(-c2ccc(Cl)cc2)c(-c2ccc(Cl)cc2)nn(CCO)c1=O
197 to 200 °C	COc1ccc2c(c1)OCCC(C(=O)O)=C2
218 to 220 °C	Cc1ccc(NC(=O)C2C(=O)N(C)c3ccccc3S2(=O)=O)cc1 (stereo not given)
200 to 201 °C	CNC(=O)CCC12CC(c3ccccc31)c1ccccc12
47 to 49 °C	CC(C)c1cc(C(C)(C)C)cc(Br)c1OCc1ccccc1
123 to 125 °C	Cc1ccc(C(NC2CCNCC2)(Oc2ccc(OCc3ccccc3)cc2)C(C)O)nc1 (stereo not given)
74 to 76 °C	CCOC(=O)CCn1c(=O)n2cc(C)cc2c2ccccc21
270 to 273 °C	O=C(O)c1cccc(-c2ncn(-c3ccc(N4CCCC4=O)cc3)n2)c1
130 to 131 °C	CC1(C)CCC(C)(C)c2cc(C(=O)c3cccc(I)c3)ccc21
222 to 224 °C	CCOC(=O)Nc1cc2c(cn1)[nH]c1ccccc12
155 to 158 °C	C[C@@H]1Cc2ccsc2[C@H](c2ccccc2)N1CCNS(=O)(=O)c1ccc(NS(C)(=O)=O)cc1 (relative stereo)
140 to 143 °C	N#Cc1ccc(Nn2cnnc2)cc1-c1ccc(C(F)(F)F)cc1
173 to 175 °C	O=c1[nH]nc2c3c(cccc13)Oc1ccc(COCCP(=O)(OCc3ccccc3)OCc3ccccc3)cc1-2
141 to 143 °C	CC(C)[C@H](NC(=O)OCc1ccc2ccccc2n1)C(=O)N[C@@H](Cc1ccccc1)C[C@H](O)[C@H](Cc1ccccc1)NC(=O)OCc1cccnc1
> 300 °C	NCc1cccc2c1CN(c1nc3c(cc1F)c(=O)c(C(=O)O)cn3C1CC1)C2
118 to 125 °C	Cc1noc(NS(=O)(=O)c2ccccc2-c2ccc(-c3ncco3)cc2CN2CC(C)(C)CC2=O)c1C
75 to 80 °C	CCc1ccc2oc(C(=O)Nc3ccc(-c4ccc(S(=O)(=O)NC(C(=O)OC)C(C)C)cc4)cc3)c(C)c2c1O (stereo not given)
154 to 155 °C	COc1cccc(NC(=O)c2ccc(C(=O)N3CCCc4ccccc43)cc2)c1
